Read-outs that look alike come from different tables or passages of the source.
Experiments:
Salmonella strain TA98 = test system: Salmonella strain TA98
Protocol: (§1) Certain compounds of the invention were tested in a miniaturized screening version of the Ames test that requires a small amount of compound compared with the regulatory test. The Ames fluctuation assay is performed in 384-well plates using two Salmonella strains, TA98 and TA100. TA98 detects frameshifts and TA100 detects base substitutions leading to missense mutations. Whereas the original Ames test is carried out by plating bacteria onto selective agar plates, the Ames fluctuation assay is carried out in liquid culture using 384-well plates. The bacterial plates are incubated with the test compounds for 96 hours, after which bacterial growth is measured spectrophotometrically using a pH indicator that changes color in response to the acidification of the media due to bacterial growth.
(§2) Metabolic activation is achieved by using rat liver S9 fraction (0.2 mg/ml). To prevent false negatives due to bacteriocidal or bacteriostatic effects, a bacterial cytotoxicity assay is conducted in parallel with the Ames fluctuation assay. Compounds are typically tested in both bacterial strains with and without S9, at four concentrations (5, 10, 50 and 100 μM) with n=48 wells. A bacterial cytotoxicity test is conducted in parallel at 8 concentrations (with 100 μM as the highest concentration) and n=3 wells. Four reference compounds (quercetin, streptozotocin, aminoanthracene and mitomycin C) are included in all experiments.
(§3) The significance of the positive counts between the treatment (in the presence of compound) and the control (in the absence of test compound) are calculated using the one-tailed Fisher's exact test—the significance levels are reported as follows: • Weak positive, if 0.01≦p≦0.05, denoted as “+” • Strong positive, if 0.001≦p≦0.01, denoted as “++” • Very strong positive, if p<0.001, denoted as “+++” • Hyphens (−) indicate negative results

Salmonella strain TA100 = test system: Salmonella strain TA100
Protocol: as §1, §2, §3

[1] = test system: Salmonella typhimurium strain TA100; experiment: Ames plate assay, TA100
Protocol: (§4) Certain compounds of the invention were tested for their potential to induce gene mutations in bacterial strains of Salmonella typhimurium (strains TA1535, TA1537, TA98, TA100) and Escherichia coli (strain WP2uvrA(pKM101)) in a bacterial mutation assay in the absence and presence of metabolite activation (rat S9-mix). Compounds are tested at the following dose levels: 50, 150, 500, or 1500 μg/plate.
(§5) Vehicle control treatment is the vehicle used to prepare the test compound formulation diluted to the same extent as the test compound solution. Positive controls using known mutagens are included for each strain with and without rat S9 mix. Four plates are used for the vehicle control and two replicate plates per dose per strain for the treated groups and for each positive control. At the end of incubation the number of revertant colonies per plate are recorded and mean values calculated for each vehicle control, positive control and concentration of test compound used. Results are also expressed as a ratio of the mean values to the mean concurrent vehicle control value (i.e. fold increase).

[2] = test system: Salmonella typhimurium strain TA1537; experiment: Ames plate assay, TA1537
Protocol: as §4, §5

[3] = test system: Salmonella typhimurium strain TA98; experiment: Ames plate assay, TA98
Protocol: as §4, §5

[4] = test system: Salmonella typhimurium strain TA1535; experiment: Ames plate assay, TA1535
Protocol: as §4, §5

[5] = test system: Escherichia coli strain WP2uvrA(pKM101); experiment: Ames plate assay, WP2uvrA(pKM101)
Protocol: as §4, §5

[6] = test system: Salmonella strains, TA98 and TA100; settings: with rat liver S9 fraction
Source text: The Ames Salmonella/microsome mutagenicity assay (Salmonella test; Ames test) is a standard, short-term bacterial reverse mutation assay specifically designed to detect a wide range of chemical substances that can produce genetic damage leading to gene mutations. The test employs several histidine dependent Salmonella strains each carrying different mutations in various genes of the histidine operon (Mortelmans and Zeiger 2000, Mutation Research 455, 29-60). […]
Certain compounds of the invention were tested in a miniaturized screening version of the Ames test that requires a small amount of compound compared with the regulatory test. […] The bacterial plates are incubated with the test compounds for 96 hours, after which bacterial growth is measured spectrophotometrically using a pH indicator that changes color in response to the acidification of the media due to bacterial growth. […]
as §3

CCOC(=O)N1Cc2nc(-c3ccc(N)c(F)c3)nc(N3CCOC[C@@H]3C)c2C1 [Intermediate 19]
Ames fluctuation assay TA98 +S9 (Salmonella strain TA98; TA98, +S9, 5 μM): +++ +++ +++ +++ (Very strong positive, if p<0.001, denoted as “+++”)
Ames fluctuation assay TA98 +S9 (Salmonella strain TA98; TA98, +S9, 10 μM): +++ +++ +++ +++ (Very strong positive, if p<0.001, denoted as “+++”)
Ames fluctuation assay TA98 +S9 (Salmonella strain TA98; TA98, +S9, 50 μM): +++ +++ +++ +++ (Very strong positive, if p<0.001, denoted as “+++”)
Ames fluctuation assay TA98 +S9 (Salmonella strain TA98; TA98, +S9, 100 μM): +++ +++ +++ +++ (Very strong positive, if p<0.001, denoted as “+++”)
Ames fluctuation assay TA100 +S9 (Salmonella strain TA100; TA100, +S9, 5 μM): −
Ames fluctuation assay TA100 +S9 (Salmonella strain TA100; TA100, +S9, 10 μM): +++ (Very strong positive, if p<0.001, denoted as “+++”)
Ames fluctuation assay TA100 +S9 (Salmonella strain TA100; TA100, +S9, 50 μM): +++ (Very strong positive, if p<0.001, denoted as “+++”)
Ames fluctuation assay TA100 +S9 (Salmonella strain TA100; TA100, +S9, 100 μM): +++ (Very strong positive, if p<0.001, denoted as “+++”)

CCOC(=O)N1Cc2nc(-c3ccc(N)cc3F)nc(N3CCOC[C@@H]3C)c2C1 [Example 138]
Ames plate assay TA100 +S9 ([1]; TA100, +S9, 50 μg/Plate): −
Ames plate assay TA100 +S9 ([1]; TA100, +S9, 150 μg/Plate): −
Ames plate assay TA100 +S9 ([1]; TA100, +S9, 500 μg/Plate): −
Ames plate assay TA100 +S9 ([1]; TA100, +S9, 1500 μg/Plate): −
Ames plate assay TA100 −S9 ([1]; TA100, −S9, 50 μg/Plate): −
Ames plate assay TA100 −S9 ([1]; TA100, −S9, 150 μg/Plate): −
Ames plate assay TA100 −S9 ([1]; TA100, −S9, 500 μg/Plate): −
Ames plate assay TA100 −S9 ([1]; TA100, −S9, 1500 μg/Plate): −
Ames plate assay TA1537 +S9 ([2]; TA1537, +S9, 50 μg/Plate): −
Ames plate assay TA1537 +S9 ([2]; TA1537, +S9, 150 μg/Plate): −
Ames plate assay TA1537 +S9 ([2]; TA1537, +S9, 500 μg/Plate): −
Ames plate assay TA1537 +S9 ([2]; TA1537, +S9, 1500 μg/Plate): −
Ames plate assay TA1537 −S9 ([2]; TA1537, −S9, 50 μg/Plate): −
Ames plate assay TA1537 −S9 ([2]; TA1537, −S9, 150 μg/Plate): −
Ames plate assay TA1537 −S9 ([2]; TA1537, −S9, 500 μg/Plate): −
Ames plate assay TA1537 −S9 ([2]; TA1537, −S9, 1500 μg/Plate): −
Ames plate assay TA98 +S9 ([3]; TA98, +S9, 50 μg/Plate): −
Ames plate assay TA98 +S9 ([3]; TA98, +S9, 150 μg/Plate): −
Ames plate assay TA98 +S9 ([3]; TA98, +S9, 500 μg/Plate): −
Ames plate assay TA98 +S9 ([3]; TA98, +S9, 1500 μg/Plate): −
Ames plate assay TA98 −S9 ([3]; TA98, −S9, 50 μg/Plate): −
Ames plate assay TA98 −S9 ([3]; TA98, −S9, 150 μg/Plate): −
Ames plate assay TA98 −S9 ([3]; TA98, −S9, 500 μg/Plate): −
Ames plate assay TA98 −S9 ([3]; TA98, −S9, 1500 μg/Plate): −
Ames plate assay TA1535 +S9 ([4]; TA1535, +S9, 50 μg/Plate): −
Ames plate assay TA1535 +S9 ([4]; TA1535, +S9, 150 μg/Plate): −
Ames plate assay TA1535 +S9 ([4]; TA1535, +S9, 500 μg/Plate): −
Ames plate assay TA1535 +S9 ([4]; TA1535, +S9, 1500 μg/Plate): −
Ames plate assay TA1535 −S9 ([4]; TA1535, −S9, 50 μg/Plate): −
Ames plate assay TA1535 −S9 ([4]; TA1535, −S9, 150 μg/Plate): −
Ames plate assay TA1535 −S9 ([4]; TA1535, −S9, 500 μg/Plate): −
Ames plate assay TA1535 −S9 ([4]; TA1535, −S9, 1500 μg/Plate): −
Ames plate assay WP2uvrA (pKM101) +S9 ([5]; +S9, 50 μg/Plate): −
Ames plate assay WP2uvrA (pKM101) +S9 ([5]; +S9, 150 μg/Plate): −
Ames plate assay WP2uvrA (pKM101) +S9 ([5]; +S9, 500 μg/Plate): −
Ames plate assay WP2uvrA (pKM101) +S9 ([5]; +S9, 1500 μg/Plate): −
Ames plate assay WP2uvrA (pKM101) −S9 ([5]; −S9, 50 μg/Plate): −
Ames plate assay WP2uvrA (pKM101) −S9 ([5]; −S9, 150 μg/Plate): −
Ames plate assay WP2uvrA (pKM101) −S9 ([5]; −S9, 500 μg/Plate): −
Ames plate assay WP2uvrA (pKM101) −S9 ([5]; −S9, 1500 μg/Plate): −

CCOC(=O)N1Cc2nc(-c3ccc(N)cc3)nc(N3CCOC[C@@H]3C)c2C1 [Metabolite Example 137, (S)-ethyl 2-(4-aminophenyl)-4-(3-methylmorpholino)-5H-pyrrolo[3,4-d]pyrimidine-6(7H)-carboxylate]
Ames assay result [6]: Ames positive

CCOC(=O)N1Cc2nc(-c3ccc(N)cc3)nc(N3CCOC[C@@H]3C)c2C1 [Example 137]
Ames fluctuation assay TA98 +S9 (Salmonella strain TA98; TA98, +S9, 5 μM): +++ +++ +++ +++ (Very strong positive, if p<0.001, denoted as “+++”)
Ames fluctuation assay TA98 +S9 (Salmonella strain TA98; TA98, +S9, 10 μM): +++ +++ +++ +++ (Very strong positive, if p<0.001, denoted as “+++”)
Ames fluctuation assay TA98 +S9 (Salmonella strain TA98; TA98, +S9, 50 μM): +++ +++ +++ +++ (Very strong positive, if p<0.001, denoted as “+++”)
Ames fluctuation assay TA98 +S9 (Salmonella strain TA98; TA98, +S9, 100 μM): +++ +++ +++ +++ (Very strong positive, if p<0.001, denoted as “+++”)
Ames fluctuation assay TA100 +S9 (Salmonella strain TA100; TA100, +S9, 5 μM): −
Ames fluctuation assay TA100 +S9 (Salmonella strain TA100; TA100, +S9, 10 μM): −
Ames fluctuation assay TA100 +S9 (Salmonella strain TA100; TA100, +S9, 50 μM): ++ (Strong positive, if 0.001≦p≦0.01, denoted as “++”)
Ames fluctuation assay TA100 +S9 (Salmonella strain TA100; TA100, +S9, 100 μM): −

— US8785457B2 (Cellzome Limited, priority 2009, dated 2014)
